# The source made the active and inactive calls.
# Key:
# Exodeoxyribonuclease V = target: T1, Exodeoxyribonuclease V (Escherichia coli (strain K12), UniProt P04993+P07648+P08394); experiment: E. coli RecBCD inhibitors, dose response, counter-screen for AddAB inhibitor project, absorbance, V66 E. coli, mutant T4 phage (AID 492957); assay type: functional, cell-based, Escherichia coli str. K-12 substr. MG1655
# T1 sequence (P04993 whole entry): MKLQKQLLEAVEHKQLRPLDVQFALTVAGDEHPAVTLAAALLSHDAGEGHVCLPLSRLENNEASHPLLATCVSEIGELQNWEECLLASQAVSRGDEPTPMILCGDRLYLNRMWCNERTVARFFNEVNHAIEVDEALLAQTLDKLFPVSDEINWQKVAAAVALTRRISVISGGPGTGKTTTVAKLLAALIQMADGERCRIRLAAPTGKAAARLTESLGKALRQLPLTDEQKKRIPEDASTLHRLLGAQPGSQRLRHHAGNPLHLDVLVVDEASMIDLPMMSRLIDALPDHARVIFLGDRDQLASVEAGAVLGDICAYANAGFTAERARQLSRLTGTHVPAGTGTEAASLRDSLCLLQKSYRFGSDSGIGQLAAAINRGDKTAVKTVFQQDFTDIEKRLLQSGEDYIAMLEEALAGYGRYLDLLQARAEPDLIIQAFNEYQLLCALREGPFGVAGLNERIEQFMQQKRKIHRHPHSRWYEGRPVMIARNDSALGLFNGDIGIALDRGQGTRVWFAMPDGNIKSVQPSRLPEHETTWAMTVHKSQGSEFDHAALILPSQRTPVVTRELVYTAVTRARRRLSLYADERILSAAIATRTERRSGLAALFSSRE
# T1 sequence (P07648 whole entry): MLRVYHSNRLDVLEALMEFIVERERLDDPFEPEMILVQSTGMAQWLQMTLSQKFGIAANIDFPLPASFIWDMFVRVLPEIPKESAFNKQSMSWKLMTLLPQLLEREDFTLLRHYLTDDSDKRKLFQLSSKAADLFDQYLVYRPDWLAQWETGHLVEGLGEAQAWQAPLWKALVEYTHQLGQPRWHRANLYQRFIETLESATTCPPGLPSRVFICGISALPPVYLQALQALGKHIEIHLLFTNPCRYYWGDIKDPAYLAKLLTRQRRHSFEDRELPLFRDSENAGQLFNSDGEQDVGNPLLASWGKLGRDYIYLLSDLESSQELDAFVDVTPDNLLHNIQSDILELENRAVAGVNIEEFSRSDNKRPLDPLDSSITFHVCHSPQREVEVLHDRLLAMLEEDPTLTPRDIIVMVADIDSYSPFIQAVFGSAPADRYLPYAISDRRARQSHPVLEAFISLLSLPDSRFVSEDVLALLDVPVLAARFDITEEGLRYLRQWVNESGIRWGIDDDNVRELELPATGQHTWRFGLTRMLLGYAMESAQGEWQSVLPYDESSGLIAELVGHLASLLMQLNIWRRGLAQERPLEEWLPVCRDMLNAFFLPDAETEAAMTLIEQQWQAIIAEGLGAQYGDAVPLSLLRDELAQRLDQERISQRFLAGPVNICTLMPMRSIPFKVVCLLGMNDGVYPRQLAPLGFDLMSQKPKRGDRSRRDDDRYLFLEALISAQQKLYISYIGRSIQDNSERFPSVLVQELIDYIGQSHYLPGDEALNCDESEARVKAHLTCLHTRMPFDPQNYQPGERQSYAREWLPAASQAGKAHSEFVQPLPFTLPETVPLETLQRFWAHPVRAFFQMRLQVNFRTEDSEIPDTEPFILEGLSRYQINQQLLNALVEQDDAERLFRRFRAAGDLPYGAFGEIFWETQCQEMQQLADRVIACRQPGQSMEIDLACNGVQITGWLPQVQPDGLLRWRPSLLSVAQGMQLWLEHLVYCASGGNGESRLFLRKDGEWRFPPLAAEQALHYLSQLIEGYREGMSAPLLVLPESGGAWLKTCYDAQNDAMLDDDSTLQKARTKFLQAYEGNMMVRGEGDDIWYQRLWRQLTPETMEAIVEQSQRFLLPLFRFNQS
# T1 sequence (P08394 whole entry): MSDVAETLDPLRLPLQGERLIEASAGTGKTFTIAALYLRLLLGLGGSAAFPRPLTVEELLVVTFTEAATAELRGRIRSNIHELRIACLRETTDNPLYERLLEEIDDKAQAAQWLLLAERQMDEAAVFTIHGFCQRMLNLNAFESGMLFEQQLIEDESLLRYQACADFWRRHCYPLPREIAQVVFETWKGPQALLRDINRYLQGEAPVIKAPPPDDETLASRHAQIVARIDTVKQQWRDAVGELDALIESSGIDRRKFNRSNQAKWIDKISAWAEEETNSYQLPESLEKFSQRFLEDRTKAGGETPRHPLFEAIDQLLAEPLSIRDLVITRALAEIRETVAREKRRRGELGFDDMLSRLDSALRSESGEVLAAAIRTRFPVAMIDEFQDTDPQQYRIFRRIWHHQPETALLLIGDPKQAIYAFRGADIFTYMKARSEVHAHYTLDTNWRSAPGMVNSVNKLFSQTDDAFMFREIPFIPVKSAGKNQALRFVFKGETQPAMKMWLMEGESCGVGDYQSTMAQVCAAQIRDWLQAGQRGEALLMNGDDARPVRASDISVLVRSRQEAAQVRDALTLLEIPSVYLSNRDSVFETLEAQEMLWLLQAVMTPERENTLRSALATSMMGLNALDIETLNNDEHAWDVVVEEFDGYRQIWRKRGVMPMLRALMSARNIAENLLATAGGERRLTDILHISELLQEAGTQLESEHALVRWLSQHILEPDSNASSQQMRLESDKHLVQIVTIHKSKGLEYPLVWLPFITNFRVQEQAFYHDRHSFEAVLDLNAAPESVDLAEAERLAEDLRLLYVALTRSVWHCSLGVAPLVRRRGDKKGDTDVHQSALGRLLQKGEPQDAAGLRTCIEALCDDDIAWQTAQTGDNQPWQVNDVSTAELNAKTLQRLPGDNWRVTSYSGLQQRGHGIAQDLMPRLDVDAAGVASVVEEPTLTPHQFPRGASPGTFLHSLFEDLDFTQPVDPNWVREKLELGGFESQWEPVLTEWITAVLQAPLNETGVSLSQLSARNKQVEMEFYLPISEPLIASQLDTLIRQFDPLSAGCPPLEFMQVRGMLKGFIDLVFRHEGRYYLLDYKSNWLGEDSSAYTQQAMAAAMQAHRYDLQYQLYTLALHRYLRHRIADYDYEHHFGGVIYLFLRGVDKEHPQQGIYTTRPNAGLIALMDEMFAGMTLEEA
# [1] = Counterscreen for AddAB inhibitors: absorbance-based bacterial cell-based high throughput dose response assay for inhibitors of bacterial viability. [Related pubchem assays (depositor defined):AID435030, AID449728, AID449731, AID488942, AID488955, AID488956]; assay type: functional
# [2] = target: DNA dC->dU-editing enzyme APOBEC-3A (Homo sapiens, UniProt P31941); experiment: Dose Response confirmation of small molecule APOBEC3A DNA Deaminase Inhibitors via a fluorescence-based single-stranded DNA deaminase assay. [Related pubchem assays (depositor defined):AID493011, AID493024]; assay type: functional
# [3] = target: T2, Short transient receptor potential channel 4 (Mus musculus, UniProt Q9QUQ5); experiment: mouse TRPC4 channel activators, dose response, cell-based, HEK293 TRPC4/mu-opioid, Fluo-4 calcium (AID 434937); assay type: functional
# T2 sequence (Q9QUQ5 whole entry): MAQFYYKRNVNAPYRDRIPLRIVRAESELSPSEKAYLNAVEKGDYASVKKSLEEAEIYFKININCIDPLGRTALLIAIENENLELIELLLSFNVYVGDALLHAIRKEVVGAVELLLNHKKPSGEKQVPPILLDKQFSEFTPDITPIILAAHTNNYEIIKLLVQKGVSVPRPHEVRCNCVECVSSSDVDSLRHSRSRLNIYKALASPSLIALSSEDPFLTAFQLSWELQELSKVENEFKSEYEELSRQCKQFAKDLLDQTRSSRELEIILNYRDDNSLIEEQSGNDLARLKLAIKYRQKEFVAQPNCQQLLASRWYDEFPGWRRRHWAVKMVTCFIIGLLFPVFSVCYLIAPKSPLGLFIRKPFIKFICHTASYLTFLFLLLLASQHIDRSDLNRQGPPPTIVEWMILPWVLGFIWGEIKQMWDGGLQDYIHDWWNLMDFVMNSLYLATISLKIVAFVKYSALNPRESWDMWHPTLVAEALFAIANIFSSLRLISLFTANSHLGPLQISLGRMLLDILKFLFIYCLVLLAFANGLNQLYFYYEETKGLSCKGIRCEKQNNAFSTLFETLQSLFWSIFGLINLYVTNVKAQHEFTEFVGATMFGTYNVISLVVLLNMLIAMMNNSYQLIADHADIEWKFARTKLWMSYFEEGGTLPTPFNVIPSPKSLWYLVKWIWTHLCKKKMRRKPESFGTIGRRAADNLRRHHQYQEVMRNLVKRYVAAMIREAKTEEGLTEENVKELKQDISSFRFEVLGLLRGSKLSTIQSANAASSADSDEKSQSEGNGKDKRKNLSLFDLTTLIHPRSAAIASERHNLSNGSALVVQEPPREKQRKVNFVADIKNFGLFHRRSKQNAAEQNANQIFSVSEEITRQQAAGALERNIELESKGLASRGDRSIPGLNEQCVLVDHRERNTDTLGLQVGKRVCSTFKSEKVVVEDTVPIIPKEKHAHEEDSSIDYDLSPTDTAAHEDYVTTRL
# [4] = target: DNA dC->dU-editing enzyme APOBEC-3G (Homo sapiens, UniProt Q9HC16); assay type: functional;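 note: Dose-response counterscreen measuring inhibition of APOBEC3G DNA deaminase activity, run while confirming APOBEC3A inhibitors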
# [5] = target: T3, Carboxy-terminal domain RNA polymerase II polypeptide A small phosphatase 1 (Homo sapiens, UniProt Q9GZU7); experiment: inhibitors of CTDSP1, concentration-response testing, biochemical assay, absorbance-based, actives from ultra-high-throughput screening (AID 540297); assay type: functional
# T3 sequence (Q9GZU7 whole entry): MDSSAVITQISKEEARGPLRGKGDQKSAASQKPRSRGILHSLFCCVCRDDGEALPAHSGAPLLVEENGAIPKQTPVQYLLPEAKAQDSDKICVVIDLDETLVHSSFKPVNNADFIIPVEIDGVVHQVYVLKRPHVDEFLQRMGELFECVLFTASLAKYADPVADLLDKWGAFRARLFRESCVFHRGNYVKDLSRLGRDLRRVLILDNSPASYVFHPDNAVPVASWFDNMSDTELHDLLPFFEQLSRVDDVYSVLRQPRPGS
# [6] = intracellular Trypanosoma cruzi inhibitors in host cells – cell-based, plate reader, cherry-pick samples, set 3, dose response (AID 651818); assay type: functional;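 note: compounds incubated with infected cells for about four days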
# [7] = target: Heat shock protein HSP 90-alpha (Homo sapiens, UniProt P07900); assay type: functional, organism-based
# [8] = microbe, parasite or virus in culture; assay type: functional; conditions: Mycobacterium tuberculosis
# [9] = target: T2, Short transient receptor potential channel 4; experiment: mouse TRPC4 channel inhibitors, dose response, cell-based, HEK293 TRPC4/mu-opioid, Fluo-4 calcium (AID 434942); assay type: functional;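 note: potency of inhibitors blocking the TRPC4 calcium response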
# Chain of DNA dC->dU-editing enzyme APOBEC-3A (P31941 whole entry): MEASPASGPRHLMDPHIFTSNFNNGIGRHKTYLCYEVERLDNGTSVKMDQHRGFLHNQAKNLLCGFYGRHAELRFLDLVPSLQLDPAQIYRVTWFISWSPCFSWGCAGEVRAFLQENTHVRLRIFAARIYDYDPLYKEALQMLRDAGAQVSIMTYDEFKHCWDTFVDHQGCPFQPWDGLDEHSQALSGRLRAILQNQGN
# Chain of DNA dC->dU-editing enzyme APOBEC-3G (Q9HC16 whole entry, the tested form may be a part): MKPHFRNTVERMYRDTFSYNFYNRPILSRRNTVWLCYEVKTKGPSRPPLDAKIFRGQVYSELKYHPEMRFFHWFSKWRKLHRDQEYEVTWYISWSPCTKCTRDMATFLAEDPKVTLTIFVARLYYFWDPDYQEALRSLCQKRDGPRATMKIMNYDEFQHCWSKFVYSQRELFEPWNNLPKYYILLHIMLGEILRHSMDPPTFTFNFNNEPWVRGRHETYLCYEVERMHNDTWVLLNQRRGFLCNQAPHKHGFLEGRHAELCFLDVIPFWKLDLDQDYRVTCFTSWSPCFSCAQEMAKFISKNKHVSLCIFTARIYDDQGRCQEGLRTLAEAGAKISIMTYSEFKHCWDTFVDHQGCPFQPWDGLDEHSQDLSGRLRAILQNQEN
compound,measurement,setting,value
Cc1cc(Cl)ccc1N=C(S)NCc1ccccc1Cl,IC50,Exodeoxyribonuclease V,> 119 µM (inactive)
same,IC50,[1],> 119 µM (inactive)
CCOc1ccccc1OCC(=O)Nc1cc(S(=O)(=O)N2CCCCC2)ccc1N1CCN(CC)CC1,IC50,[2],5.85 µM (active)
same,EC50,[3],4.22 µM (active)
same,IC50,[4],6.44 µM (active)
Cc1ccc(C)c(NC(=O)CSc2sc3c(O)cc(=O)[nH]c3c2C#N)c1,IC50,[5],6.09 µM (active)
Cc1cc(NS(=O)(=O)c2ccc(N)cc2)no1 [SULFAMETHOXAZOLE],IC50,Exodeoxyribonuclease V,> 119 µM (inactive)
same,IC50,[1],29.2 µM (inactive)
O=C(COc1cccc([N+](=O)[O-])c1)N/N=C/c1ccco1,IC50,[5],13.9 µM (active)
COc1ccc(S(=O)(=O)N(C)C[C@@H]2Oc3c(NS(=O)(=O)c4ccccc4)cccc3C(=O)N([C@@H](C)CO)C[C@@H]2C)cc1,AC50,[6],12.9 µM (active)
COc1ccc(NC(=O)CSc2nnc(-c3ccc(F)cc3)o2)cn1,IC50,Exodeoxyribonuclease V,> 119 µM (inactive)
same,IC50,[1],> 119 µM (inactive)
COc1cc(OC)c(CN2CCC(Cc3ccccc3)CC2)cc1Br,EC50,[3],2.66 µM (active)
C[C@@H]1CCCCO[C@H](CN(C)Cc2ccc(Cl)c(Cl)c2)[C@@H](C)CN([C@H](C)CO)C(=O)c2cc(NS(=O)(=O)c3ccc(F)cc3)ccc2O1,AC50,[6],4.79 µM (active)
C[C@H]1CN([C@@H](C)CO)C(=O)c2cccc(NC(=O)c3nc4ccccc4s3)c2O[C@H]1CN(C)Cc1ccc(C(=O)Nc2ccccc2N)cc1,AC50,[6],2.97 µM (active)
C[C@@H]1CN([C@H](C)CO)C(=O)Cc2cc(NC(=O)Nc3cccc4ccccc34)ccc2O[C@@H]1CN(C)Cc1ccc(Oc2ccccc2)cc1,AC50,[6],2.15 µM (active)
O=C(Nc1nc2c(s1)CCCC2)C1CCCN1C(=O)c1cccs1 (stereo unspecified),IC50,[2],10 µM (active)
same,IC50,[4],15.8 µM (active)
COC(=O)Cn1c(=O)c2c(n(Cc3ccccc3)c1=O)=N/C(=C/c1ccc(Br)cc1)C=2O,IC50,[5],5.15 µM (active)
Cc1ccc(C)c(OCCC(=O)OCC(=O)N2c3ccccc3NC(=O)C2(C)C)c1,IC50,[2],11 µM (active)
same,IC50,[4],10.4 µM (active)
O=C(O)c1cn(-c2ccc(N3CCCC3)c(F)c2)c2c(F)c(F)c(F)cc2c1=O,IC50,Exodeoxyribonuclease V,> 119 µM (inactive)
same,IC50,[1],64.9 µM (inactive)
same,AC50,[7],4.37 µM (active)
CCC(C)NC(=O)c1cn(CC)c2cc(N3CCN(C(=O)c4ccco4)CC3)c(F)cc2c1=O (stereo unspecified),CC50,[8],> 40 µM (active)
same,IC50,Exodeoxyribonuclease V,89.9 µM (inactive)
same,IC50,[1],22 µM (inactive)
CN(C)C(CNC(=O)C1CCN(S(=O)(=O)c2cccc(C(F)(F)F)c2)CC1)c1ccccc1 (stereo unspecified),EC50,[9],0.421 µM (active)
same,EC50,[3],0.376 µM (active)
CCCCn1nc(NC(=O)COC)c2cc3ccc(C)cc3nc21,IC50,[2],3.49 µM (active)
same,IC50,[4],5 µM (active)
